According to patent publication US9249123B2, “Pyridinones/pyrazinones, method of making, and method of use thereof” (Genentech, Inc., priority 2010, dated 2016):

Assays:
[1] = system: CD86 surface expression on CD19+/7AAD- total mouse splenocytes stimulated with IgM; test: CD86 Inhibition Assay; assay type: cell-based; conditions: Splenocyte; Balb/c mouse splenocytes, IgM stimulation, 24 hr
Protocol: A CD86 Inhibition assay can be conducted on Formula I compounds for the inhibition of B cell activity using total mouse splenocytes purified from spleens of 8-16 week old Balb/c mice (Example 905).
A generalized procedure for a standard assay for the inhibition of B cell activity that can be used to test Formula I compounds is as follows. Total mouse splenocytes are purified from spleens of 8-16 week old Balb/c mice by red blood cell lysis (BD Pharmingen #555899). Testing compounds are diluted to 0.5% DMSO and incubated with 1.25×10^6 splenocytes in a final volume of 200 μl in flat clear bottom plates (Falcon 353072) for 60 min at 37° C. Cells are then stimulated with the addition of 15 μg/ml IgM (Jackson ImmunoResearch 115-006-020), and incubated for 24 hr at 37° C., 5% CO2. Following the 24 hr incubation, cells are transferred to conical bottom clear 96-well plates and pelleted by centrifugation at 1200×g×5 min. Cells are preblocked by CD16/CD32 (BD Pharmingen #553142), followed by triple staining with CD19-FITC (BD Pharmingen #553785), CD86-PE (BD Pharmingen #553692), and 7AAD (BD Pharmingen #51-68981E). Cells are sorted on a BD FACSCalibur and gated on the CD19^+/7AAD^− population. The levels of CD86 surface expression on the gated population is measured versus test compound concentration. Exemplary results are in Table 3.

[2] = system: production of CD69 by B lymphocytes in human whole blood activated with goat F(ab')2 anti-human IgM; test: CD69 Whole Blood Assay; assay type: cell-based; conditions: Lymphocyte, anti-IgM stimulation, 20 hours, CD69 positive of CD20 positive cells
Text: A CD69 Whole Blood Assay can be conducted on Formula I compounds to determine the ability of compounds to inhibit the production of CD69 by B lymphocytes in human whole blood activated by crosslinking surface IgM with goat F(ab′)2 anti-human IgM (Example 907).
Human blood is obtained from healthy volunteers, with the following restrictions: 1 week drug-free, non-smokers. Blood (approximately 20 mls to test 8 compounds) is collected by venipuncture into Vacutainer® (Becton, Dickinson and Co.) tubes with sodium heparin.
Solutions of Formula I compounds at 10 mM in DMSO are diluted 1:10 in 100% DMSO, then are diluted by three-fold serial dilutions in 100% DMSO for a ten point dose-response curve. The compounds are further diluted 1:10 in PBS and then an aliquot of 5.5 μl of each compound is added in duplicate to a 2 ml 96-well plate; 5.5 μl of 10% DMSO in PBS is added as control and no-stimulus wells. Human whole blood—HWB (100 μl) is added to each well. After mixing the plates are incubated at 37° C., 5% CO2, 100% humidity for 30 minutes. Goat F(ab′)2 anti-human IgM (10 μl of a 500 μg/ml solution, 50 μg/ml final) is added to each well (except the no-stimulus wells) with mixing and the plates are incubated for an additional 20 hours. At the end of the 20 hour incubation, samples are incubated with fluorescent labeled antibodies for 30 minutes, at 37° C., 5% CO2, 100% humidity. Include induced control, unstained and single stains for compensation adjustments and initial voltage settings. Samples are then lysed with PharM Lyse™ (BD Biosciences Pharmingen) according to the manufacturer's instructions. Samples are then transferred to a 96 well plate suitable to be run on the BD Biosciences HTS 96 well system on the LSRII machine. Data acquired and Mean Fluorescence Intensity values were obtained using BD Biosciences DIVA Software. Results are initially analyzed by FACS analysis software (Flow Jo). […] The IC50 values are calculated by Prism version 5, using a nonlinear regression curve fit.

SMILES	EC50 [1]	IC50 [2]
Cn1cc(-c2cccc(N3Cc4cc(C(C)(C)C)ccc4C3=O)c2CO)cc(Nc2ccc(C3CNC3)cn2)c1=O [Compound 117, 2-(3-(5-(5-(azetidin-3-yl)pyridin-2-ylamino)-1-methyl-6-oxo-1,6-dihydropyridin-3-yl)-2-(hydroxymethyl)phenyl)-5-tert-butylisoindolin-1-one]	0.154 µM	
CN1CCN(c2ccc(Nc3cc(-c4cccc(N5Cc6cc(C(C)(C)C)ccc6C5=O)c4CO)cn(C)c3=O)nn2)CC1 [Compound 122, 5-tert-butyl-2-(2-(hydroxymethyl)-3-(1-methyl-5-(6-(4-methylpiperazin-1-yl)pyridazin-3-ylamino)-6-oxo-1,6-dihydropyridin-3-yl)phenyl)isoindolin-1-one]		0.185 µM
Cn1cc(-c2cccc(N3Cc4cc(C(C)(C)C)ccc4C3=O)c2CO)nc(Nc2cnn(C3CC3)c2)c1=O [Compound 109, 5-tert-butyl-2-(3-(6-(1-cyclopropyl-1H-pyrazol-4-ylamino)-4-methyl-5-oxo-4,5-dihydropyrazin-2-yl)-2-(hydroxymethyl)phenyl) isoindolin-1-one]	0.113 µM	
Cn1cc(-c2cccc(N3Cc4cc(C(C)(C)C)ccc4C3=O)c2CO)cc(Nc2ccncn2)c1=O [Compound 107, 5-tert-butyl-2-(2-(hydroxymethyl)-3-(1-methyl-6-oxo-5-(pyrimidin-4-ylamino)-1,6-dihydropyridin-3-yl)phenyl)isoindolin-1-one]	0.074 µM	0.605 µM
Cc1c(-c2cn(C)c(=O)c(Nc3ccc(C4C(=O)N(C)CCN4C)cc3)n2)cccc1N1Cc2cc(C(C)(C)C)ccc2C1=O (centres unmarked) [Compound 127, 5-tert-butyl-2-[3-(6-{[4-(1,4-dimethyl-3-oxopiperazin-2-yl)phenyl]amino}-4-methyl-5-oxo-4,5-dihydropyrazin-2-yl)-2-methylphenyl]-2,3-dihydro-1H-isoindol-1-one]	0.498 µM	
Cn1cc(-c2cccc(N3Cc4cc(C(C)(C)C)ccc4C3=O)c2CO)cc(Nc2cc(C3CC3)n[nH]2)c1=O [Compound 110, 5-tert-butyl-2-(3-(5-(3-cyclopropyl-1H-pyrazol-5-ylamino)-1-methyl-6-oxo-1,6-dihydropyridin-3-yl)-2-(hydroxymethyl)phenyl) isoindolin-1-one]		1.1 µM
Cn1cc(-c2cccc(N3Cc4cc(C(C)(C)C)sc4C3=O)c2CO)cc(Nc2cc3n(n2)CCOC3)c1=O [Compound 154, 5-(3-{2-tert-butyl-6-oxo-4H,5H,6H-thieno[2,3-c]pyrrol-5-yl}-2-(hydroxymethyl)phenyl)-1-methyl-3-{4H,6H,7H-pyrazolo[3,2-c][1,4]oxazin-2-ylamino}-1,2-dihydropyridin-2-one]	0.149 µM	
Cc1cc(Nc2cc(-c3cccc(N4Cc5cc(C(C)(C)C)sc5C4=O)c3CO)cn(C)c2=O)n[nH]1 [Compound 157, 5-(3-{2-tert-butyl-6-oxo-4H,5H,6H-thieno[2,3-c]pyrrol-5-yl}-2-(hydroxymethyl)phenyl)-1-methyl-3-[(5-methyl-1H-pyrazol-3-yl)amino]-1,2-dihydropyridin-2-one]	0.229 µM	
Cn1cc(-c2cccc(N3Cc4cc(C(C)(C)C)sc4C3=O)c2CO)nc(Nc2ccc(N3CCOCC3)cc2)c1=O [Compound 160, 5-(3-{2-tert-butyl-6-oxo-4H,5H,6H-thieno[2,3-c]pyrrol-5-yl}-2-(hydroxymethyl)phenyl)-1-methyl-3-{[4-(morpholin-4-yl)phenyl]amino}-1,2-dihydropyrazin-2-one]	0.153 µM	0.116 µM
Cn1cc(-c2cccc(N3Cc4cc(C(C)(C)C)sc4C3=O)c2CO)cc(Nc2ccn(CCO)n2)c1=O [Compound 139, 5-(3-{2-tert-butyl-6-oxo-4H,5H,6H-thieno[2,3-c]pyrrol-5-yl}-2-(hydroxymethyl)phenyl)-3-{[1-(2-hydroxyethyl)-1H-pyrazol-3-yl]amino}-1-methyl-1,2-dihydropyridin-2-one]		0.0426 µM
Cn1cc(-c2ccc(F)c(N3Cc4cc(C(C)(C)C)sc4C3=O)c2CO)cc(Nc2ccncn2)c1=O [Compound 141, 5-(3-{2-tert-butyl-6-oxo-4H,5H,6H-thieno[2,3-c]pyrrol-5-yl}-4-fluoro-2-(hydroxymethyl)phenyl)-1-methyl-3-(pyrimidin-4-ylamino)-1,2-dihydropyridin-2-one]	0.775 µM	
Cn1cc(-c2cccc(N3Cc4cc(C(C)(C)C)sc4C3=O)c2CO)cc(Nc2ccc(N3CCOCC3)cn2)c1=O [Compound 151, 5-(3-{2-tert-butyl-6-oxo-4H,5H,6H-thieno[2,3-c]pyrrol-5-yl}-2-(hydroxymethyl)phenyl)-1-methyl-3-{[5-(morpholin-4-yl)pyridin-2-yl]amino}-1,2-dihydropyridin-2-one]		0.112 µM
CN1CCN(c2ccc(Nc3cc(-c4cccc(N5Cc6cc(C(C)(C)C)sc6C5=O)c4CO)cn(C)c3=O)nc2)CC1 [Compound 146, 5-(3-{2-tert-butyl-6-oxo-4H,5H,6H-thieno[2,3-c]pyrrol-5-yl}-2-(hydroxymethyl)phenyl)-1-methyl-3-{[5-(4-methylpiperazin-1-yl)pyridin-2-yl]amino}-1,2-dihydropyridin-2-one]	0.0289 µM	
Cn1cc(-c2cccc(N3Cc4cc(C(C)(C)C)ccc4C3=O)c2CO)cc(Nc2ccn(CCO)n2)c1=O [Compound 119]		0.157 µM
Cn1cc(-c2cccc(N3Cc4cc(C(C)(C)C)sc4C3=O)c2CO)nc(Nc2ccc(C3CCNCC3)cc2)c1=O [Compound 152, 5-(3-{2-tert-butyl-6-oxo-4H,5H,6H-thieno[2,3-c]pyrrol-5-yl}-2-(hydroxymethyl)phenyl)-1-methyl-3-{[4-(piperidin-4-yl)phenyl]amino}-1,2-dihydropyrazin-2-one]	0.306 µM	
